# Measured values reported in patent US20250339567A1, “COMPOUNDS WITH IMPROVED PHARMACOKINETICS FOR IMAGING AND THERAPY OF CANCER” (priority 2019, published 2025).
# Starred links: 1 amine or outer side, 2 acyl side, 3 side chain; linkers in the order of their positions; H or OH if unused. Non-standard residues stand in square brackets, D forms with d. Residues, ends and D or L forms follow the SMILES beside them. *: point of attachment. DOTA = O=C(O)CN1CCN(CC(=O)O)CCN(CC(=O)*)CCN(CC(=O)O)CC1; αMeW = C[C@](N)(Cc1c[nH]c2ccccc12)C(=O)O; Sta = CC(C)C[C@H](N)[C@@H](O)CC(=O)O; Bta = N[C@@H](Cc1csc2ccccc12)C(=O)O; Gly(cPent) = N[C@H](C(=O)O)C1CCCC1; Trx = NC[C@H]1CC[C@H](C(=O)O)CC1; X1 = O=C(CN1CCC(N[*:1])CC1)[*:2]; Chg = N[C@H](C(=O)O)C1CCCCC1; dOrn = NCCC[C@@H](N)C(=O)O; hSer = N[C@@H](CCO)C(=O)O; Nle = CCCC[C@H](N)C(=O)O; dDap = NC[C@@H](N)C(=O)O; βAla = NCCC(=O)O; Sar = CNCC(=O)O
# Assay: Plasma studies: metabolic stability in vitro in human plasma (radio RP-HPLC)
# Type: in vitro ADME
# Protocol: Metabolic stability in vitro was determined applying a procedure published by Linder et al. that was slightly modified. Immediately after labeling, human (200 μL) or murine (100 μL) plasma was added and the mixture was incubated at 37° C. for 72±2 h (or 6±0.5 h). Proteins were precipitated by treatment with ice-cold EtOH (150 μL [human], 100 μL [murine]) and ice-cold MeCN (450 μL [human], 300 μL [murine]), followed by centrifugation for 20 min at 13000 rpm. The supernatants were decanted and further analyzed using radio RP-HPLC. […]
row,Compound,Amount of intact tracer after incubation in human plasma for 72 ± 2 h (n = 2)
1,CCCC[C@H](NC(=O)[C@H](Cc1ccccc1)NC(=O)[C@H](Cc1c[nH]cn1)NC(=O)CCNC(=O)[C@@H](NC(=O)[C@H](C)NC(=O)[C@H](Cc1c[nH]c2ccccc12)NC(=O)[C@H](CCO)NC(=O)[C@@H](Cc1ccccc1)NC(=O)CN1CCN(CC(=O)O)CCN(CC(=O)O)CCN(CC(=O)O)CC1)C(C)C)C(N)=O [DOTA-[Hse^7]UL] ({DOTA}-[dF][hSer]WAV[βAla]HF[Nle]-NH2),0.9 ± 0.9
2,"CC(C)C[C@H](NC(=O)C[C@H](O)[C@H](CC(C)C)NC(=O)[C@H](Cc1c[nH]cn1)NC(=O)CNC(=O)[C@@H](NC(=O)[C@H](C)NC(=O)[C@](C)(Cc1c[nH]c2ccccc12)NC(=O)[C@H](CCC(N)=O)NC(=O)[C@@H](Cc1ccccc1)NC(=O)CN1CCC(NC(=O)CN2CCN(CC(=O)O)CCN(CC(=O)O)CCN(CC(=O)O)CC2)CC1)C1CCCCC1)C(N)=O [DOTA-[α-Me-Trp^8, Chg^10]MJ9] ({DOTA}-[X1][dF]Q[αMeW]A[Chg]GH[Sta]L-NH2)",22.6 ± 1.9
3,"CC(C)C[C@H](NC(=O)C[C@H](O)[C@H](CC(C)C)NC(=O)[C@H](Cc1c[nH]cn1)NC(=O)CNC(=O)[C@@H](NC(=O)[C@H](C)NC(=O)[C@H](Cc1csc2ccccc12)NC(=O)[C@H](CCC(N)=O)NC(=O)[C@@H](Cc1ccccc1)NC(=O)[C@H]1CC[C@H](CNC(=O)CN2CCN(CC(=O)O)CCN(CC(=O)O)CCN(CC(=O)O)CC2)CC1)C(C)C)C(N)=O [DOTA-[Txa^5, Bta^8]MJ9] ({DOTA-Trx}-[dF]Q[Bta]AVGH[Sta]L-NH2)",27.1 ± 2.1
4,"CC(C)C[C@H](NC(=O)C[C@H](O)[C@H](CC(C)C)NC(=O)[C@H](Cc1c[nH]cn1)NC(=O)CN(C)C(=O)[C@@H](NC(=O)[C@H](C)NC(=O)[C@H](Cc1csc2ccccc12)NC(=O)[C@H](CCC(N)=O)NC(=O)[C@@H](Cc1ccccc1)NC(=O)CN1CCC(NC(=O)CN2CCN(CC(=O)O)CCN(CC(=O)O)CCN(CC(=O)O)CC2)CC1)C(C)C)C(N)=O [DOTA-[Bta^8, N—Me-Gly^11]MJ9] ({DOTA}-[X1][dF]Q[Bta]AV[Sar]H[Sta]L-NH2)",3.0 ± 0.2
5,"CC(C)C[C@H](NC(=O)C[C@H](O)[C@H](CC(C)C)NC(=O)[C@H](Cc1c[nH]cn1)NC(=O)CNC(=O)[C@@H](NC(=O)[C@H](CO)NC(=O)[C@H](Cc1csc2ccccc12)NC(=O)[C@H](CCC(N)=O)NC(=O)[C@@H](Cc1ccccc1)NC(=O)CN1CCC(NC(=O)CN2CCN(CC(=O)O)CCN(CC(=O)O)CCN(CC(=O)O)CC2)CC1)C(C)C)C(N)=O [DOTA-[Bta^8, Ser^9]MJ9] ({DOTA}-[X1][dF]Q[Bta]SVGH[Sta]L-NH2)",1.5 ± 0.2
6,"CC(C)C[C@H](NC(=O)C[C@H](O)[C@H](CC(C)C)NC(=O)[C@H](Cc1c[nH]cn1)NC(=O)CNC(=O)[C@@H](NC(=O)[C@H](CO)NC(=O)[C@](C)(Cc1c[nH]c2ccccc12)NC(=O)[C@H](CCC(N)=O)NC(=O)[C@@H](Cc1ccccc1)NC(=O)CN1CCC(NC(=O)CN2CCN(CC(=O)O)CCN(CC(=O)O)CCN(CC(=O)O)CC2)CC1)C(C)C)C(N)=O [DOTA-[α-Me-Trp^8, Ser^9]MJ9] ({DOTA}-[X1][dF]Q[αMeW]SVGH[Sta]L-NH2)",22.1 ± 2.2
7,"CC(C)C[C@H](NC(=O)C[C@H](O)[C@H](CC(C)C)NC(=O)[C@H](Cc1c[nH]cn1)NC(=O)CNC(=O)[C@@H](NC(=O)[C@H](C)NC(=O)[C@H](Cc1c[nH]c2ccccc12)NC(=O)[C@H](CCO)NC(=O)[C@@H](Cc1ccccc1)NC(=O)[C@H]1CC[C@H](CNC(=O)CN2CCN(CC(=O)O)CCN(CC(=O)O)CCN(CC(=O)O)CC2)CC1)C(C)C)C(N)=O [DOTA-[Txa^5, Hse^7]MJ9] ({DOTA-Trx}-[dF][hSer]WAVGH[Sta]L-NH2)",26.7 ± 1.3
8,"CC(C)C[C@H](NC(=O)C[C@H](O)[C@H](CC(C)C)NC(=O)[C@H](Cc1c[nH]cn1)NC(=O)CNC(=O)[C@@H](NC(=O)[C@H](C)NC(=O)[C@](C)(Cc1c[nH]c2ccccc12)NC(=O)[C@H](CCC(N)=O)NC(=O)[C@@H](CCCNC(=N)N)NC(=O)CN1CCC(NC(=O)CN2CCN(CC(=O)O)CCN(CC(=O)O)CCN(CC(=O)O)CC2)CC1)C(C)C)C(N)=O [DOTA-[arg^6, α-Me-Trp^8]MJ9] ({DOTA}-[X1][dR]Q[αMeW]AVGH[Sta]L-NH2)",20.1 ± 0.7
9,"CC(C)C[C@H](NC(=O)C[C@H](O)[C@H](CC(C)C)NC(=O)[C@H](Cc1c[nH]cn1)NC(=O)CNC(=O)[C@@H](NC(=O)[C@H](C)NC(=O)[C@H](Cc1csc2ccccc12)NC(=O)[C@H](CCC(N)=O)NC(=O)[C@@H](CCCNC(=N)N)NC(=O)CN1CCC(NC(=O)CN2CCN(CC(=O)O)CCN(CC(=O)O)CCN(CC(=O)O)CC2)CC1)C(C)C)C(N)=O [DOTA-[arg^6, Bta^8]MJ9] ({DOTA}-[X1][dR]Q[Bta]AVGH[Sta]L-NH2)",6.6 ± 2.0
10,CC(C)C[C@H](NC(=O)C[C@H](O)[C@H](CC(C)C)NC(=O)[C@H](Cc1c[nH]cn1)NC(=O)CN(C)C(=O)[C@@H](NC(=O)[C@H](C)NC(=O)[C@H](Cc1c[nH]c2ccccc12)NC(=O)[C@H](CCC(N)=O)NC(=O)[C@@H](Cc1ccccc1)NC(=O)CN1CCC(NC(=O)CN2CCN(CC(=O)O)CCN(CC(=O)O)CCN(CC(=O)O)CC2)CC1)C(C)C)C(N)=O [DOTA-[N—Me-Gly^11]MJ9],6.3 ± 0.6
11,CC(C)C[C@H](NC(=O)C[C@H](O)[C@H](CC(C)C)NC(=O)[C@H](Cc1c[nH]cn1)NC(=O)CNC(=O)[C@@H](NC(=O)[C@H](C)NC(=O)[C@H](Cc1c[nH]c2ccccc12)NC(=O)[C@H](CCO)NC(=O)[C@@H](Cc1ccccc1)NC(=O)CN1CCC(NC(=O)[C@@H](CN)NC(=O)[C@@H](CCCN)NC(=O)CN2CCN(CC(=O)O)CCN(CC(=O)O)CCN(CC(=O)O)CC2)CC1)C(C)C)C(N)=O [DOTA-orn^3-dap^4-[Hse^7]MJ9] ({DOTA}-[dOrn][dDap][X1][dF][hSer]WAVGH[Sta]L-NH2),7.9 ± 2.5
12,CC(C)C[C@H](NC(=O)C[C@H](O)[C@H](CC(C)C)NC(=O)[C@H](Cc1c[nH]cn1)NC(=O)CNC(=O)[C@@H](NC(=O)[C@H](C)NC(=O)[C@](C)(Cc1c[nH]c2ccccc12)NC(=O)[C@H](CCC(N)=O)NC(=O)[C@@H](Cc1ccccc1)NC(=O)CN1CCC(NC(=O)[C@@H](CN)NC(=O)[C@@H](CCCN)NC(=O)CN2CCN(CC(=O)O)CCN(CC(=O)O)CCN(CC(=O)O)CC2)CC1)C(C)C)C(N)=O [DOTA-orn^3-dap^4-[α-Me-Trp^8]MJ9] ({DOTA}-[dOrn][dDap][X1][dF]Q[αMeW]AVGH[Sta]L-NH2),16.6 ± 0.8
13,"CC(C)C[C@H](NC(=O)C[C@H](O)[C@H](CC(C)C)NC(=O)[C@H](Cc1c[nH]cn1)NC(=O)CNC(=O)[C@@H](NC(=O)[C@H](C)NC(=O)[C@H](Cc1csc2ccccc12)NC(=O)[C@H](CCC(N)=O)NC(=O)[C@@H](Cc1ccccc1)NC(=O)CN1CCC(NC(=O)CN2CCN(CC(=O)O)CCN(CC(=O)O)CCN(CC(=O)O)CC2)CC1)C1CCCC1)C(N)=O [DOTA-[Bta^8, Cpg^10]MJ9] ({DOTA}-[X1][dF]Q[Bta]A[Gly(cPent)]GH[Sta]L-NH2)",2.2 ± 0.5
14,CC(C)C[C@H](NC(=O)C[C@H](O)[C@H](CC(C)C)NC(=O)[C@H](Cc1c[nH]cn1)NC(=O)CNC(=O)[C@@H](NC(=O)[C@H](C)NC(=O)[C@H](Cc1csc2ccccc12)NC(=O)[C@H](CCC(N)=O)NC(=O)[C@@H](Cc1ccccc1)NC(=O)CN1CCC(NC(=O)[C@@H](CN)NC(=O)[C@@H](CCCN)NC(=O)CN2CCN(CC(=O)O)CCN(CC(=O)O)CCN(CC(=O)O)CC2)CC1)C(C)C)C(N)=O [DOTA-orn^3-dap^4-[Bta^8]MJ9] ({DOTA}-[dOrn][dDap][X1][dF]Q[Bta]AVGH[Sta]L-NH2),2.7 ± 0.3
